“Also recorded” adds a separate entry of the source.
Experiments:
Nluc = Nluc (Oplophorus gracilirostris, UniProt Q9GV45, A31E/A60N/A81I/F95D/I117V/K70R/L54V/L99Q/M102K/N193R/P142E/Q151K/Q38R/Q45L/V71I/Y165I); assay: Multiplex RealTime-Glo / Caspase-Glo 3/7 in MCF7 cells; assay type: cell-based; design: purchased Promega Corporation
Procedure: (§1) A) In a Corning 3570 assay plate, MCF7 cells were plated at 1,000 cells/well in 20 μL of cell culture media (EMEM supplemented with 0.01 mg/mL human recombinant insulin and 10% fetal bovine serum) and incubated in overnight. 10 μL of 4× REALTIME-GLO™ MT Cell Viability reagents (Promega Corporation) in media or 10 μL media only was added to the cells. 10 μL of 40 μM staurosporine in media or 10 μL media only (control) was added to the cells. The cells were incubated, and caspase activation monitored at 5.5 hrs post-reagent addition. To monitor caspase activation, 40 μL CASPASE-GLO® 3/7 Assay Reagent (Promega Corporation), either on its own (Caspase) or with 200 μM of JRW-0004, JRW-0013, or JRW-0042, was added. Reactions were incubated at RT, and luminescence was measured at 1 hr 10 min post-reagent addition on Tecan M1000 Pro plate reader.
(§2) When comparing the signal generated from the CASPASE-GLO® reagent in media only versus the signal generated in media containing REALTIME-GLO™ reagent, the signal is higher in the multiplex reaction.

NANOLUC® enzyme = NANOLUC® enzyme (Oplophorus gracilirostris, UniProt Q9GV45, A31E/A60N/A81I/F95D/I117V/K70R/L54V/L99Q/M102K/N193R/P142E/Q151K/Q38R/Q45L/V71I/Y165I); assay: Inhibitor IC50 determination (NANOLUC enzyme, furimazine); assay type: biochemical; conditions: IC50 (uM), 0.4 ng/ml NANOLUC enzyme, final furimazine 10 uM (at Km)
Nluc luciferase = Nluc luciferase (Oplophorus gracilirostris, UniProt Q9GV45, A31E/A60N/A81I/F95D/I117V/K70R/L54V/L99Q/M102K/N193R/P142E/Q151K/Q38R/Q45L/V71I/Y165I); assay: Inhibition of purified Nluc, dose and time dependence; assay type: biochemical; conditions: pro-substrate PBI-4442, DTT, TERGITOL, RT, various time points
Procedure: A solution of purified Nluc and an Nluc pro-substrate (PBI-4442, which is described in US 2013/0130289), which is converted to an Nluc substrate upon reduction with DTT, were prepared in PBS buffer, pH 7.5. A 40 mM solution of DTT in PBS, pH 7.5 containing 1% TERGITOL was also prepared. Titrations of the thienopyrrole compounds JRW-0004, WZ141-88, WZ141-86, WZ141-74, WZ141-84, WZ141-89, WZ141-90, and WZ141-91 in the buffer containing DTT and TERGITOL were then prepared. An equal volume of the Nluc/pro-substrate solution was added to the thienopyrrole compound titrations in wells of an assay plate. The reactions were incubated at RT, and luminescence was measured at various time points on the Tecan M100 Pro plate reader (integration time 200 ms). IC50 values were determined using GraphPad Prism 6.03.

purified Nluc enzyme = biological target: T1, purified Nluc enzyme (Oplophorus gracilirostris, UniProt Q9GV45, A31E/A60N/A81I/F95D/I117V/K70R/L54V/L99Q/M102K/N193R/P142E/Q151K/Q38R/Q45L/V71I/Y165I); assay type: biochemical; conditions: titration up to 100 μM final; RT 2 hrs; pro-substrate PBI-4442 + DTT
T1 construct: purchased Promega Corporation
Procedure: In a Corning 3570 assay plate, purified Nluc enzyme (Promega Corporation), 20 mM DTT, and an Nluc pro-substrate (PBI-4442, which is described in US Patent Publication No. 2013/0130289), which is converted to an Nluc substrate upon reduction with DTT, was added. Compound titrations of JRW-0004, JRW-0013, JRW-0006, JRW-0042, JRW-0138, and JRW-0147 were then made (1:2 serial dilution in PBS, 11 points plus no inhibitor control, starting at 200 μM; 100 μM final concentration in reaction). Compound titrations were added in equal volume to the wells of the assay plate. The reactions were incubated at RT for 2 hrs, and luminescence was measured on Tecan M1000 Pro plate reader. Half-maximal inhibitor (thienopyrrole compound) concentrations (IC50s) were determined using GraphPad Prism 6.03.

[1] = tested on: firefly luciferase, e.g., ULTRAGLO® luciferase; assay: Specificity of inhibition: firefly luciferase activity; assay type: biochemical; conditions: 1 μM luciferin in Luciferase Detection Reagent; RT 2 hrs
Procedure: The following example describes the specificity of disclosed thienopyrrole compounds, JRW-0004, JRW-0013, JRW-0006, JRW-0042, JRW-0138, and JRW-0147, to inhibit Nluc luciferase activity versus firefly luciferase activity, e.g., ULTRAGLO® luciferase. In a Corning 3570 assay plate, a solution containing 1 μM luciferin in Luciferase Detection Reagent (Promega Corporation V865/859) was added to the assay wells. An equal volume of titrations the thienopyrrole compounds, JRW-0004, JRW-0013, JRW-0006, JRW-0042, JRW-0138, and JRW-0147 were then added to the wells. The reactions were incubated at RT for 2 hrs, and luminescence was measured on Tecan M1000 Pro plate reader.

[2] = biological target: T2, Nluc enzyme in REALTIME-GLO™ MT Cell Viability reagent (Oplophorus gracilirostris, UniProt Q9GV45, A31E/A60N/A81I/F95D/I117V/K70R/L54V/L99Q/M102K/N193R/P142E/Q151K/Q38R/Q45L/V71I/Y165I); assay: RealTime-Glo / Caspase-Glo multiplex in K562 cells; assay type: cell-based; conditions: Trail titration, 200 μM in CASPASE-GLO 3/7 reagent, 2 hrs RT
T2 construct: purchased Promega Corporation
Procedure: K562 were plated into wells of a Corning 3707 assay plate in 20 μL RPMI media at 2000 cells/well and incubated overnight. A Trail titration was prepared in 10 μL RPMI media and added to cells. Then either 10 μL 4× REALTIME-GLO™ MT Cell Viability reagent (RTCV; Promega Corporation) or media (control) was added to each well. The reactions were incubated at 37° C./5% CO2 at various time points, and luminescence was measured on a Tecan M1000 Pro plate reader. At 5 hrs, 40 μL CASPASE-GLO® 3/7 detection reagent (Promega Corporation) was added with or without 200 μM JRW-0004. The reaction was incubated for 2 hrs at room temperature (RT), and luminescence was measured on the Tecan M1000 Pro plate reader.

Nluc enzyme = assay: Multiplex RealTime-Glo / Caspase-Glo 3/7 in MCF7 cells; assay type: cell-based
Procedure: as §1, §2

HEK293 cells = assay: Cell viability and toxicity (CellTiter-Glo); assay type: cell-based; conditions: at concentrations greater than 2 μg/mL
Procedure: HEK293 cells were plated at 20 k cells/well and exposed to vehicle (DMSO), digitonin (positive control for cell death), or JRW-0344 for 10 min/30 min/120 min/240 min/or 18 hrs. CellTiter-Glo (Promega Corp.) was added, and luminescence measured.

[3] = 10 μM Stauro vs Control, 200 μM compound
[4] = CASPASE-GLO 3/7 reagent with 200 μM compound, 1 hr 10 min

Nluc, sequence (Q9GV45 28-196 with tags or gaps with the stated changes limits assumed): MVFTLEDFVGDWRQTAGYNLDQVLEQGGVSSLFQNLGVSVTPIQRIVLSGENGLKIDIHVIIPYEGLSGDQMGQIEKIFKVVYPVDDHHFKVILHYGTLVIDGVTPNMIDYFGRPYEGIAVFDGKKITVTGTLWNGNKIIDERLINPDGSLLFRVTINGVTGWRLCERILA
Nluc luciferase, sequence (Q9GV45 28-196 with tags or gaps with the stated changes limits assumed): as above
T1 sequence (Q9GV45 28-196 with tags or gaps with the stated changes limits assumed): as above
NANOLUC® enzyme, sequence (Q9GV45 28-196 with tags or gaps with the stated changes limits assumed): as above
T2 sequence (Q9GV45 28-196 with tags or gaps with the stated changes limits assumed): as above

Row | SMILES | Fold Cont, Media containing RealTime-Glo (Nluc; [3]) | Avg (luminescence), Media containing RealTime-Glo, 10 μM Stauro (Nluc; [4]) | Avg (luminescence), Media containing RealTime-Glo, Control (Nluc; [4]) | IC50 (NANOLUC® enzyme) | Inhibition of Nluc luciferase, dose and time dependence (FIGS. 4-6) (Nluc luciferase) | Inhibition of purified Nluc enzyme (FIG. 2) (purified Nluc enzyme) | Inhibition of firefly luciferase activity (FIG. 3) [1] | Inhibition of Nluc enzyme in RealTime-Glo reagent (FIG. 1) [2] | Fold Cont, Media only (Nluc enzyme; [3]) | Avg (luminescence), Media only, 10 μM Stauro (Nluc enzyme; [4]) | Avg (luminescence), Media only, Control (Nluc enzyme; [4]) | Cell death (FIG. 18B) (HEK293 cells)
1 | CCN(C(=O)Cn1c(C(=O)OC)cc2sccc21)c1cccc(C)c1 [JRW-0004, methyl 4-(2-(ethyl(m-tolyl)amino)-2-oxoethyl)-4H-thieno[3,2-b]pyrrole-5-carboxylate] | 5.53 | 50266 | 9090 | 1.1 µM | inhibit Nluc luciferase in a dose- and time-dependent manner | capable of inhibiting purified Nluc enzyme | do not inhibit firefly luciferase activity; also recorded: did not inhibit the firefly luciferase activity | can inhibit the Nluc enzyme | 5.89 | 54589 | 9261 | 
2 | C[C@@H]1CC[C@@]2(OC1)O[C@H]1[C@@H](O)[C@H]3[C@@H]4CC[C@H]5C[C@@H](O[C@@H]6O[C@H](CO)[C@H](O[C@@H]7O[C@H](CO)[C@@H](O)[C@H](O[C@@H]8OC[C@@H](O)[C@H](O)[C@H]8O)[C@H]7O[C@@H]7O[C@H](CO)[C@H](O)[C@H](O[C@@H]8O[C@H](CO)[C@@H](O)[C@H](O)[C@H]8O)[C@H]7O)[C@H](O)[C@H]6O)[C@H](O)C[C@]5(C)[C@H]4CC[C@]3(C)[C@H]1[C@@H]2C [Digitonin, reference compound] |  |  |  |  |  |  |  |  |  |  |  | almost complete death

Source: patent publication US10513694B2, “Thienopyrrole compounds and uses thereof” (PROMEGA CORPORATION, priority 2015, dated 2019)
